In ChEMBL document CHEMBL1141210, “Structure-based discovery of a new class of Hsp90 inhibitors” (Bioorg Med Chem Lett, 2005) one finds IC50 and GI50 data, which are given here for eleven compounds.

Structures are written as SMILES.

For one assay, the target named is Heat shock protein HSP90 (Homo sapiens, UniProt P07900+P08238).
In another assay the test system is HCT-116. The assay can be described thus: Inhibition of cell proliferation in HCT116 human colon cancer cell line. It is filed as functional.
In the next assay the test system is BT-474. Briefly: Inhibition of cell proliferation in BT474 human breast cancer cell line after 48 hr exposure. Type of assay: functional. The conditions noted are these: BT-474, 48 h.

Description for Heat shock protein HSP90: Binding affinity to Hsp90 by fluorescent polarization assay

For `O=S(=O)(Nc1ccc(O)c(-c2c(O)ccc3ccccc23)c1)c1cccs1`, the IC50 (in general, the concentration needed to halve the response being measured) against Heat shock protein HSP90 came to 0.6 µM. In addition, in the assay with HCT-116, it took 59.8 µM to inhibit growth by half (GI50).

In turn, `CC(C)(C)c1ccc(S(=O)(=O)Nc2ccc(O)c(-c3c(O)ccc4ccccc34)c2)cc1` registered an IC50 at Heat shock protein HSP90 of 26.4 µM.

As to `O=S(=O)(Nc1ccc(O)c(-c2c(O)ccc3ccccc23)c1)c1ccc(Br)cc1`, at Heat shock protein HSP90, the IC50 was 6.1 µM.

In turn, `CCc1ccc(S(=O)(=O)Nc2ccc(O)c(-c3c(O)ccc4ccccc34)c2)cc1` showed an IC50 against Heat shock protein HSP90 of 6.6 µM.

For the compound `Cc1cc(C)c(S(=O)(=O)Nc2ccc(O)c(-c3c(O)ccc4ccccc34)c2)cc1C`, the IC50 at Heat shock protein HSP90 was 15.2 µM.

`O=S(=O)(Nc1ccc(O)c(-c2c(O)ccc3ccccc23)c1)c1ccc(F)cc1` gave an IC50 against Heat shock protein HSP90 of 8.8 µM.

Take `O=S(=O)(Nc1ccc(O)c(-c2c(O)ccc3ccccc23)c1)c1ccc(Cl)cc1`: at Heat shock protein HSP90, the IC50 is 2.2 µM. Also, in the assay on HCT-116, the GI50 (as a rule, the concentration that inhibits growth by half) was determined as 27.8 µM.

`O=S(=O)(Nc1ccc(O)c(-c2c(O)ccc3ccccc23)c1)c1cc(Cl)ccc1Cl`: the figures for the GI50 in the assay with BT-474 and with HCT-116 were 34.9 µM and 29 µM, respectively.

The compound `O=S(=O)(Nc1ccc(O)c(-c2c(O)ccc3ccccc23)c1)c1ccccc1` showed a 50% inhibitory concentration (IC50) at Heat shock protein HSP90 of 3.3 µM.

In the assay on HCT-116, `C[C@@H]1C[C@H]2O[C@@H]2/C=C\C=C\C(=O)Cc2c(Cl)c(O)cc(O)c2C(=O)O1` [RADICICOL] had a GI50 of 0.13 µM.

Turning to `C=CCNC1=C2C[C@@H](C)C[C@H](OC)[C@H](O)[C@@H](C)/C=C(\C)[C@H](OC(N)=O)[C@@H](OC)/C=C\C=C(/C)C(=O)NC(=CC1=O)C2=O` [TANESPIMYCIN], the GI50 with HCT-116 worked out at 0.16 µM.
